What was measured:
[1] = molecular target: T1, Citron Rho-interacting kinase (Homo sapiens, UniProt O14578); assay: NanoLuc NanoBRET (CITKD)
[2] = molecular target: T1, Citron Rho-interacting kinase; assay: NanoLuc NanoBRET (CIT)

T1 sequence (O14578 whole entry): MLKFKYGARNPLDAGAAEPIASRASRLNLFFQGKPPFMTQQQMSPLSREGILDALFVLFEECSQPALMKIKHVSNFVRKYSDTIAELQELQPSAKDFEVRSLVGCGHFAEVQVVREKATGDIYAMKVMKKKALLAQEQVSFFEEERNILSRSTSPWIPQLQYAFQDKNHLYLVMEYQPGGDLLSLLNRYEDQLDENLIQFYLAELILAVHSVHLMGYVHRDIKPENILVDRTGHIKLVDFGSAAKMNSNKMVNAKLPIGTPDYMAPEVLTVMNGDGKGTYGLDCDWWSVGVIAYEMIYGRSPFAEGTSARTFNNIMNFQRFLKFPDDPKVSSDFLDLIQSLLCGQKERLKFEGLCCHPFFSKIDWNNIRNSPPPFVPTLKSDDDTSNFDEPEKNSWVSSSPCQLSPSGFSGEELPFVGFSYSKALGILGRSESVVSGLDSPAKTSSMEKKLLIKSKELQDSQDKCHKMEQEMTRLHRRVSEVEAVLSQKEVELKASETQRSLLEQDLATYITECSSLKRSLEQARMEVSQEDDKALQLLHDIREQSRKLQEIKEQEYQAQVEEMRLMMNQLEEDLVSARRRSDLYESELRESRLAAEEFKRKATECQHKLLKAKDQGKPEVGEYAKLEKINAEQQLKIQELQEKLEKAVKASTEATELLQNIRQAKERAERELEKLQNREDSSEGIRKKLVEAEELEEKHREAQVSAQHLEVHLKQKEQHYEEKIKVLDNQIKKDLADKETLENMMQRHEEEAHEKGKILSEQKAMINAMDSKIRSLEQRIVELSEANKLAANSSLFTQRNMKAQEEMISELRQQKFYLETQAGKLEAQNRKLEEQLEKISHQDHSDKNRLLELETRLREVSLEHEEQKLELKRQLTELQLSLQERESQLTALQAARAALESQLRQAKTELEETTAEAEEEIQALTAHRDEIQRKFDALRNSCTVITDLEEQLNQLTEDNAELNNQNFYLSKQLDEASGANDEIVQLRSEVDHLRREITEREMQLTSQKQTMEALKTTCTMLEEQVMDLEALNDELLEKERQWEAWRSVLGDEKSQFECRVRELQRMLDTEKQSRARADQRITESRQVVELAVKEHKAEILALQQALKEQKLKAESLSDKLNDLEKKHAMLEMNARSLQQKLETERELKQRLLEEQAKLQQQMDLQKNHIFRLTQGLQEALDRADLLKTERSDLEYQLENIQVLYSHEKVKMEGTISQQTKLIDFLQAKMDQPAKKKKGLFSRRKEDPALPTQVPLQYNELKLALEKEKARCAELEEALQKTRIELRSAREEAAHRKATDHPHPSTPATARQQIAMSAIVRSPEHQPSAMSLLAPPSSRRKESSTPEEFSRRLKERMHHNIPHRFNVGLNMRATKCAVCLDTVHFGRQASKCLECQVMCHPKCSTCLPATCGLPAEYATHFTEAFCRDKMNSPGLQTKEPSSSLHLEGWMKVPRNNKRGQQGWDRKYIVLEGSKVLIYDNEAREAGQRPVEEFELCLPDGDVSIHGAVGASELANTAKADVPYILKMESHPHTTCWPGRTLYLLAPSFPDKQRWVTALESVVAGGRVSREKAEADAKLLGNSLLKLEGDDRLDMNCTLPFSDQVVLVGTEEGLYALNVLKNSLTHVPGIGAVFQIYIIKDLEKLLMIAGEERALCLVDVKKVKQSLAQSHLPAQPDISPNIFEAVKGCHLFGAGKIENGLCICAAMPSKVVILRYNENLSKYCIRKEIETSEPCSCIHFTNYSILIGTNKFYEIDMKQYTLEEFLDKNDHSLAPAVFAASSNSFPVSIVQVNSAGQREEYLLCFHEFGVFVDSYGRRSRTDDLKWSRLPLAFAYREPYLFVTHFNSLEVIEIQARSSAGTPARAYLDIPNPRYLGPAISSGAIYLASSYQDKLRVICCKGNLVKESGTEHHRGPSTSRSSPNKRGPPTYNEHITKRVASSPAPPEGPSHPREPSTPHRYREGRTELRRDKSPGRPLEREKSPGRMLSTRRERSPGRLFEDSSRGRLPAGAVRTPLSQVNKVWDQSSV

Cc1cc2c(-c3ccc(NC(=O)[C@H](N)CC(C)(C)C)cc3C)cncc2[nH]1
Kd [1]: no binding
Kd [2]: no binding

Reference: ChEMBL document CHEMBL5723584 (2023)
